Experimental data published in PMC8911046, “Identification of Kukoamine A, Zeaxanthin, and Clexane as New Furin Inhibitors” (International Journal of Molecular Sciences, 2022).
Where “and” joins values, the source holds several entries; their conditions need not be identical. Identical values can stand only once. Residues, ends and D or L forms follow the SMILES beside them. *: point of attachment. Decanoyl = CCCCCCCCCC(=O)*; CH2Cl = ClC*

What was measured:
[1] = target: T1, human recombinant furin (Homo sapiens, UniProt P09958); experiment: Fluorogenic furin inhibition assay, recombinant furin; assay type: biochemical; conditions: 3.6 nM human recombinant furin, 50 µM fluorogenic substrate, pH 9
T1 construct: purchased R&D Systems 1503-SE-010
Protocol: Clexane (LMWH, enoxaparin sodium, Clexane, Sanofi Aventis S.A., Barcelona, Spain) and each candidate compound selected by virtual screening were assayed as inhibitors of human recombinant furin (1503-SE-010; Lot#INK2320031; R&D Systems) and physiological furin secreted from U-251 MG cells. For both types of furin, the fluorogenic specific substrate (mentioned above) was used. […] Compounds were reconstituted in their appropriate solvents (distilled water, ethanol, PBS, etc.), according to the supplier’s instructions. In a 96-well black plate, U-251 MG secretome concentrated 10× or 3.6 nM human recombinant furin were incubated with different compound concentrations for 10 min at room temperature, and then, 50 µM furin specific fluorogenic substrate was added to every well, except one blank. Fluorescence was recorded in the Multiskan Go plate reader at 380 and 460 nm for emission and excitation wavelengths, respectively, at 37 °C for 30 min.
The IC50 was calculated only for those compounds that inhibited recombinant and physiological furin. For each compound concentration, furin activity’s maximum velocity (mRFU/min) was recorded. Then, by using GraphPad software (v. 8), the correlation between the decimal logarithm (compound concentration) and furin activity’s maximum velocity was calculated by nonlinear regression (curve fit) for XY analyses. […]

[2] = set-up: method as in PMID 27241194, PMID 28254666; conditions: rats or mice, doses between 5 and 20 mg/kg; cited from earlier work
[3] = test system: 293T HEK cell line; experiment: Cell viability by 7-AAD flow cytometry; assay type: cell-based; conditions: for Alive (%) / Dead (%): 293T HEK; for percentage of live cells: half of the IC50 for physiological furin, no compound 94.25% ± 3.18%
Protocol: New furin inhibitors identified by virtual screening were tested in cell viability assays. The 293T HEK cell line (human embryonic kidney cell line purchased from American Type Culture Collection) was used as healthy cell model. They were cultured in DMEM containing 4,5 g/L glucose, supplemented with 10% fetal bovine serum, 1% GlutaMax, and 0,1% gentamicin. They were maintained in Corning® T-75 flasks (catalog #430641; ThermoFisher Scientific, Waltham, MA, USA) at 37 °C and 5% carbon dioxide. At 100% cellular confluence, cells were subcultured in 12-well plates (flat bottom, sterile, NUNC brand, Biolab, Madrid, Spain) at 100,000 cells/mL for 24 h. Then, different concentrations (double, half, and full IC50 concentrations for physiological furin) of furin inhibitors were added to cells for 24 h, and cells were collected afterward. The experiment was run in duplicates. Then, the cell pellet was resuspended in running buffer (autoMACS ® Running Buffer–MACS Separation Buffer; order no.:130-091-221; Miltenyi Biotec, Madrid, Spain) and 7-AAD (Cat: 51-68981E; BD Biosciences, Madrid, Spain). Finally, this solution was evaluated in a flow cytometer (BD Accuri™ C6 Plus Flow Cytometer; BD Biosciences, Madrid, Spain) to calculate mortality rates. A blank solution with cell pellet resuspended in running buffer was used to discard cell autofluorescence. The results were analyzed in FlowJo software (v. 10).

[4] = target: T2, furin from the U-251 MG secretome (Homo sapiens, UniProt P09958); experiment: Furin inhibition assay in coadjuvants with CMK; assay type: biochemical; conditions: CMK alone, read-out: IC50 for CMK alone, physiological furin
T2 construct: physiological furin secreted from U-251 MG cells; endogenous in cells; host or cells: U-251 MG human glioblastoma cells; conditioned medium (secretome) concentrated 10x
Protocol: The IC50 was calculated only for those compounds that inhibited recombinant and physiological furin. For each compound concentration, furin activity’s maximum velocity (mRFU/min) was recorded. Then, by using GraphPad software (v. 8), the correlation between the decimal logarithm (compound concentration) and furin activity’s maximum velocity was calculated by nonlinear regression (curve fit) for XY analyses. From this statistical method, the IC50 was calculated with a 95% confidence interval (CI).
Since furin inhibition by CMK had been tested only in physiological conditions, adjuvant inhibition assays were performed with furin from the U-251 MG secretome. Inhibition was assessed by using different concentrations of CMK (Cat.No. B5437; APExBIO) and the IC50 concentrations of selected virtual screening compounds or Clexane. In a 96-well black plate, various CMK (0–50 µM) concentrations were incubated with the IC50 concentrations of the rest of the compounds and with 10× U-251 MG secretome as described above. After 10 min incubation at room temperature, 50 µM furin specific fluorogenic substrate was added and the plate was read in a Multiskan Go plate reader at 380 and 460 nm for emission and excitation wavelengths, respectively, at 37 °C for 30 min.

[5] = 2xIC50, single replicates of duplicate
[6] = IC50, single replicates of duplicate
[7] = IC50/2, single replicates of duplicate
[8] = 293T cells, double IC50 concentration, 24 h

T1 sequence (P09958 108-794): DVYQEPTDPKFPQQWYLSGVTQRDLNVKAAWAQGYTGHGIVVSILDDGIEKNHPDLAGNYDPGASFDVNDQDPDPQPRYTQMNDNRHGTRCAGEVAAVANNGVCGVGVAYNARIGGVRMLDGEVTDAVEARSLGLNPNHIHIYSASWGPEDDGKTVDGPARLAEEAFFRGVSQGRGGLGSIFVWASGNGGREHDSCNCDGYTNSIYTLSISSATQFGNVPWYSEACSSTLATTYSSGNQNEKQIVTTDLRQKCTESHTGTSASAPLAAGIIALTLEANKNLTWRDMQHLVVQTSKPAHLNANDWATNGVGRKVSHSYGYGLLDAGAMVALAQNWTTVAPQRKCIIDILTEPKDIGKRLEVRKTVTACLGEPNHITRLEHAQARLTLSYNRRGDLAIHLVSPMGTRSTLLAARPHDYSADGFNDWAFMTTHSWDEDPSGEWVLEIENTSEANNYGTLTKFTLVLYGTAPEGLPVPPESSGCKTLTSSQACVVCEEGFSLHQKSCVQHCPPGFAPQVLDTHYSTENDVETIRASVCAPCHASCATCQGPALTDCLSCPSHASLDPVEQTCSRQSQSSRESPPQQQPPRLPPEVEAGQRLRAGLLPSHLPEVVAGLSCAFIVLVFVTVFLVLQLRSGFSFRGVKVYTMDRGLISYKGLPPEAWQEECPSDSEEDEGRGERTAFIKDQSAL
T2 sequence (P09958 108-715 limits assumed): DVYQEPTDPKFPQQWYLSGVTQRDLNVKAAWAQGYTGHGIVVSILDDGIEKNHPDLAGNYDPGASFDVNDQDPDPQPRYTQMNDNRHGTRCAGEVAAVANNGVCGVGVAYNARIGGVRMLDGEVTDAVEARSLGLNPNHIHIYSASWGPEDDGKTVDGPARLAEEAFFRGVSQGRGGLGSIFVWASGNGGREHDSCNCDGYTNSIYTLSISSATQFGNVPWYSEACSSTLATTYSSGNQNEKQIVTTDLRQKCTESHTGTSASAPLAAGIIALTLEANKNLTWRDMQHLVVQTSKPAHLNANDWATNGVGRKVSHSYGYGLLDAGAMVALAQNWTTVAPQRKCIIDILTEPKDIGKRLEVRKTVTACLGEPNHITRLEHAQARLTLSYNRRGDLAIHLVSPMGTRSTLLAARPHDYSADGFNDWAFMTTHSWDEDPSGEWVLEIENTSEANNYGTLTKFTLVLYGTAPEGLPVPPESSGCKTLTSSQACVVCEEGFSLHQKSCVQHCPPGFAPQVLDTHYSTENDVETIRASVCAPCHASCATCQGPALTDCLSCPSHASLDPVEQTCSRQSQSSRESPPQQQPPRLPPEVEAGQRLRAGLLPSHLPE

SMILES | IC50 [1] | adverse effects [2] | Alive (%) [3, 5] | Dead (%) [3, 5] | Alive (%) [3, 6] | Dead (%) [3, 6] | Alive (%) [3, 7] | Dead (%) [3, 7] | effect on cell viability [3, 8] | effect on cell viability ([3]; 293T cells, full IC50 concentration, 24 h) | percentage of live cells ([3]; 293T cells, 24 h) | IC50 [4] | reduction of cell viability ([3]; 293T cells, IC50 concentration, 24 h)
O=C(CCc1ccc(O)c(O)c1)NCCCNCCCCNCCCNC(=O)CCc1ccc(O)c(O)c1 [Kukoamine A] | 1070 µM | no significant reported adverse effects | 6.25% and 5.88% | 94.1% and 93.8% | 8.33% and 0% | 91.7% and 100% | 89.8% and 85.3% | 10.2% and 14.7% | significantly reduced | significantly reduced | 87.55% ± 1.48% | – | –
CCCCCCCCCC(=O)N[C@@H](CCCNC(=N)N)C(=O)N[C@H](C(=O)N[C@@H](CCCCN)C(=O)N[C@@H](CCCNC(=N)N)C(=O)CCl)C(C)C [CMK, Decanoyl-Arg-Val-Lys-Arg-chloromethylketone] (Decanoyl-RVKR-CH2Cl) | – | – | – | – | – | – | – | – | – | – | – | 4.2 µM | –
CC1=C(/C=C/C(C)=C/C=C/C(C)=C/C=C/C=C(C)/C=C/C=C(C)/C=C/C2=C(C)C[C@@H](O)CC2(C)C)C(C)(C)C[C@H](O)C1 [Zeaxanthin] | 90.5 µM | – | 1.10% and 15.7% | 84.3% and 98.9% | 32.8% and 33.9% | 67.2% and 66.1% | 78.2% and 84.0% | 21.8% and 16.0% | nearly total death | – | 81.1% ± 4.1% | – | 61%
